Entries after “also recorded” stand apart in the source; their conditions may differ.
Tests used:
[1] = system: HEK293 cells; experiment: MTT cell viability, non-transfected (mock) HEK293 cells; type: cell-based, human; details: 0–100 μM, 72 h, Fig 6B
Experimental: Compounds were dissolved in DMSO to the final concentration of 100 μM. A549, CCD39Lu, MCF-7, MDA-MB-231 and MCF-12A cells were seeded in 96 wells plates at density 2x10^4 cells/well and incubated overnight as described above. Subsequently, cells were treated with tested compounds at concentrations: 100 μM; 50 μM; 25μM; 12.5μM; 6 μM; 3 μM; 1.5 μM. […] Cells were incubated 72 h at 37°C in a humidified atmosphere containing 5% CO2 in the cell culture media appropriate for each cell line. Then, the medium was aspirated and 170 μl MTT solution (5mg/ml) was added to each well. Plates were incubated for 2 hours at 37°C, and then plates were centrifuged at 1200 rpm for 3 minutes. […] Absorbance at 570 nm (with reference wavelenght 650 nm) was measured using a plate reader (Biotek Instruments, Elx-800). Cell viability was calculated as a percentage relative to the control.
Fig 6 Estrogenic and cytotoxic activity of tested compounds in HEK293 cells transfected with wild type ERα receptor or plasmids bearing mutated versions of ERα. […] Results are expressed as mean ± SEM (n = 8). * p < 0.05 was considered statistically significant. […] 48 h after transfection, cells were incubated in the presence of increasing concentrations of compounds 18 for 72 h and cell viability was measured by MTT assay. […]

[2] = system: MCF-7 cells; experiment: MTT assay, MCF-7; type: cell-based, human
Experimental: (§1) The cell lines used in the cytotoxicity study, besides MCF-12A, were purchased from European Collection of Cell Culture (ECACC, Salisbury, UK): HEK293 (human embryonic kidney, ATTC no. CRL-1573), A549 (Human lung carcinoma, ECACC no. 86012804), CCD39Lu (Human lung fibroblasts, ECACC no. 90110512), MCF-7 (Human breast adenocarcinoma, ECACC no. 86012803) and MDA-MB-231 (Human breast adenocarcinoma ECACC no. 92020424). Cell lines were cultured in DMEM medium without phenol red and supplemented with 10% (v/v) FBS, 1% penicillin-streptomycin and 1% L-glutamine. MCF-12A (ATTC no. […]) was purchased from American Type Culture Collection (ATCC Manassas, VA 20110 USA). MCF-12A cells were kept in 1:1 mixture of Dulbecco’s modified Eagle’s medium and Ham’s F12 medium, 20 ng/ml human epidermal growth factor, 100 ng/ml cholera toxin, 0.01 mg/ml bovine insulin, 500 ng/ml hydrocortisone and 5% horse serum. All cell lines were cultured at 37°C, in a humidified atmosphere containing 5% CO2.
(§2) Compounds were dissolved in DMSO to the final concentration of […]. A549, CCD39Lu, MCF-7, MDA-MB-231 and MCF-12A cells were seeded in 96 wells plates at density 2x10^4 cells/well and incubated overnight as described above. Subsequently, cells were treated with tested compounds at concentrations: 100 μM; 50 μM; 25μM; 12.5μM; 6 μM; 3 μM; 1.5 μM. […] Cells were incubated 72 h at 37°C in a humidified atmosphere containing 5% CO2 in the cell culture media appropriate for each cell line. Then, the medium was aspirated and 170 μl MTT solution (5mg/ml) was added to each well. Plates were incubated for 2 hours at 37°C, and then plates were centrifuged at 1200 rpm for 3 minutes. The formazan crystals were dissolved in 200 μl DMSO and plates were further agitated on a plate shaker at 300–500 rpm for 10 minutes. Absorbance at 570 nm (with reference wavelenght 650 nm) was measured using a plate reader (Biotek Instruments, Elx-800). Cell viability was calculated as a percentage relative to the control.

[3] = system: A549 cells; experiment: MTT assay, A549; type: cell-based; details: Homo sapiens, 72 h, lung adenocarcinoma, read-out: Cytotoxic activity IC50, A549
Experimental: as §1, §2

[4] = system: MCF-7 cells; experiment: LDH release assay, MCF-7; type: cell-based, human; details: 72 h, Fig 2
Experimental: Cytotoxicity was evaluated by measuring the cell membrane permeability, using a LDH assay kit purchased from Cayman Chemical (Ann Arbor USA). The LDH assay was performed for MCF-7 and MDA-MB-231 cells (seeded at 2×10^4 density). As a positive control cell permeabilization with 1%Triton X-100 was used. The assay was performed 72h after start the incubation. Briefly, the plates were centrifuged at 400 ×g for 5 minutes, and 100 μL of supernatant were transferred from each well to the new 96-well plate and analyzed according to the manufacturer’s protocol. 100 μL of reaction mixture, containing lactic acid, NAD^+, tetrazolium salt and diaphorase, was added to each well. Plates were incubated on an orbital shaker for 30 minutes at room temperature and the absorbance at 490 nm was measured with a plate reader (Biotek Instruments, Elx-800). Results were expressed as a percentage of the total value of the positive control.

In the case of Fc1ccc(NC(=S)c2ccc(NC(=S)c3ccc(F)cc3)cc2)cc1 [Compound 18], the “Cell viability, non-transfected HEK293” value [1] is reported as “moderate cell toxicity”, the “Activity in MTT assay (in words), MCF-7” value ([2]; 72 h) is reported as “significant activity; also recorded: strong effect” and the IC50 ([2]; Homo sapiens, MCF7, 72 h, estrogen dependent breast adenocarcinoma, read-out: Cytotoxic activity IC50, MCF-7) is reported as 5.07 µM. The IC50 [3] was over 100 µM and the “LDH release, MCF-7” value [4] was “relatively low increase”.
